Columns and labels:
[1] = system: C6-15 cells transfected with pEF-BOS-dhfr (empty vector) and pEF-BOS-Gqi; assay: Intracellular Ca2+ concentration in control C6-15 cells transfected with empty vector and Gqi; type: cell-based, rat; details: empty vector plus Gqi control cells; 3x10^-5 to 1x10^-12 mol/L
Description: The C6-15 cells were seeded on a 96-well plate (96 well Black/clear bottom plate, collagen I coated; manufactured by BECTON DICKINSON) so that the concentration of cells became 2×10^4 cells/well. After culturing for 48 hours, a gene transfection was carried out by using a transfection reagent (LipofectAMINE 2000; manufactured by GIBCO BRL) and the combination of the plasmid pEF-BOS-dhfr-HORK3 (50 ng/well) and the plasmid pEF-BOS-Gqi (50 ng/well). As a control, a gene transfection was carried out by using the combination of the plasmid pEF-BOS-dhfr (i.e., an empty vector without the HORK3 gene) and the plasmid pEF-BOS-Gqi, instead of the combination of the plasmid pEF-BOS-dhfr-HORK3 and the plasmid pEF-BOS-Gqi. […]
A time course of the change in the intracellular Ca^2+ concentration was measured by using FLIPR (manufactured by Molecular Device). More particularly, after 10 seconds from the beginning of measurement, 2MeSADP or ADP was added to wells to a final concentration of 3×10^−5 mol/L to 1×10^−12 mol/L. After the addition, each fluorescence intensity was measured at an interval of 1 second for 50 seconds, and then at an interval of 6 seconds for 4 minutes. […]

[2] = target: T1, HORK3 protein (human ADP receptor P2TAC) (Homo sapiens, UniProt Q9H244); assay: Inhibition of forskolin-stimulated cAMP production in CHO cell expressing HORK3 protein; type: cell-based; details: CHO-dhfr(-) cells expressing HORK3; 3 μmol/L forskolin; 37° C. 30 minutes; read-out: EC50, responsiveness against the HORK3 protein (decrease of cAMP produced by forskolin)
T1 sequence (Q9H244 whole entry): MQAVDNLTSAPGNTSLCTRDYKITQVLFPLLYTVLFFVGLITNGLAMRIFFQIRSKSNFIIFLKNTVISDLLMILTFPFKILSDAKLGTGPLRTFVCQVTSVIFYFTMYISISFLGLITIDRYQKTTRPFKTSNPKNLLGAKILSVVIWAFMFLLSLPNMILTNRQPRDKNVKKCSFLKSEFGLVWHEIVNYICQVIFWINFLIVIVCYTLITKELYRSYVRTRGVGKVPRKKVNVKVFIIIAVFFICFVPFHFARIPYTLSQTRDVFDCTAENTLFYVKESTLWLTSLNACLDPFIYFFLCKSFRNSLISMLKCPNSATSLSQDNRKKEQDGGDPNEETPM
Description: It was found from Example 3 that the ADP receptor was a Gi-coupled receptor, and thus it is expected that the ADP receptor has an activity of suppressing the adenylate cyclase activity. […] In this connection, a dihydrofolate reductase (DHFR; an essential enzyme for de novo synthesis of nucleic acids) defective cell line [CHO-dhfr(−) line] was used in the present example. The plasmid pEF-BOS-dhfr-HORK3 was used as an expression plasmid to be used for expressing the HORK3 protein. The CHO-dhfr(−) line was seeded on each 10 cm-petri dish (1×10^6 cells/dish) by using an αMEM (with nucleic acids) medium. […] As a control, a gene transfection was carried out by using the plasmid pEF-BOS-dhfr (i.e., an empty vector without the HORK3 gene), instead of the plasmid pEF-BOS-dhfr-HORK3. After 24 hours from the gene transfection procedure, the transfected cells were taken and suspended in an αMEM (without nucleic acids) medium containing 100 nmol/L methotrexate (a competitive inhibitor of DHFR; manufactured by Wako Pure Chemical Industries). Each suspension was gradually diluted and reseeded on each 10 cm-petri dish. […] The amount of cAMP produced in each cell under each condition was measured by using the cAMP-EIA system in accordance with a protocol attached thereto.

[3] = system: CHO cell transfected with the empty vector; assay: Forskolin-stimulated cAMP production in control CHO cell transfected with the empty vector; type: cell-based, Chinese hamster; details: 3 μmol/L forskolin
Description: The CHO-dhfr(−) line was seeded on each 10 cm-petri dish (1×10^6 cells/dish) by using an αMEM (with nucleic acids) medium. After culturing for 1 day, a gene transfection was carried out by using a transfection reagent (LipofectAMINE 2000; manufactured by GIBCO BRL) and the plasmid pEF-BOS-dhfr-HORK3 (8 μg). As a control, a gene transfection was carried out by using the plasmid pEF-BOS-dhfr (i.e., an empty vector without the HORK3 gene), instead of the plasmid pEF-BOS-dhfr-HORK3.
After 24 hours from the gene transfection procedure, the transfected cells were taken and suspended in an αMEM (without nucleic acids) medium containing 100 nmol/L methotrexate (a competitive inhibitor of DHFR; manufactured by Wako Pure Chemical Industries). Each suspension was gradually diluted and reseeded on each 10 cm-petri dish. Colonies which appeared after 2 weeks were individually taken, and used as a CHO cell expressing the HORK3 protein or a control CHO cell transfected with the empty vector in the following experiment.
The CHO cells expressing the HORK3 protein or the CHO cells transfected with the empty vector were seeded on a 24-well plate (1×10^5 cells/well). […]
The amount of cAMP produced in each cell under each condition was measured by using the cAMP-EIA system in accordance with a protocol attached thereto. […]

[4] = target: T1, HORK3 protein (human ADP receptor P2TAC); assay: Forskolin-stimulated cAMP production in C6-15 cell expressing HORK3 protein (cAMP HTRF); type: cell-based; details: C6-15 cells expressing HORK3; for EC50: 1 μmol/L forskolin, 37° C. 30 minutes, read-out: EC50, responsiveness against the HORK3 protein (decrease of cAMP produced by forskolin)
Description: The C6-15 cells expressing the HORK3 protein were seeded on a 96-well plate (1×10^4 cells/well). After culturing for 1 day, cells were treated with a DMEM medium containing 1 mmol/L 3-isobutyl-1-methylxanthine (manufactured by Sigma) and 0.1% BSA for 10 minutes, and then the combination of 1 μmol/L forskolin (manufactured by Wako Pure Chemical Industries) and 2MeSADP (a final concentration=1×10^−12 to 1×10^−7 mol/L), or the combination of 1 μmol/L forskolin and ADP (a final concentration=1×10^−10 to 1×10^−5 mol/L) was added dropwise. After incubating at 37° C. for 30 minutes, the culture supernatant was discarded, and then cells were dissolved in PBS containing 0.2% Triton X-100.
The amount of cAMP produced in each cell under each condition was measured by using a cAMP HTRF kit (manufactured by CIS bio international) in accordance with a protocol attached thereto. When the amount of cAMP produced by stimulating with 1 μmol/L forskolin alone was regarded as 100%, a concentration-dependent curve for the amount of cAMP in the presence of 2MeSADP or ADP was drawn.
Next, effects of compounds, which are known to suppress the platelet aggregation, on the suppression of the amount of cAMP produced by the forskolin stimulus in the C6-15 cell expressing the HORK3 protein by 2MeSADP were examined. […] After incubating at 37° C. for 30 minutes, the culture supernatant was discarded, and then cells were dissolved in PBS containing 0.2% Triton X-100. The amount of cAMP produced was measured by using the cAMP HTRF kit in accordance with a protocol attached thereto. When the amount of cAMP produced by stimulating with 1 μmol/L forskolin alone was regarded as 0%, and that by stimulating with the combination of 1 μmol/L forskolin and 10 nmol/L 2MeSADP was regarded as 100%, a concentration-dependent curve of each inhibitor was drawn.

[5] = target: T1, HORK3 protein (human ADP receptor P2TAC); assay: Increase in intracellular Ca2+ concentration in C6-15 cell co-expressing HORK3 protein and Gqi (FLIPR); type: cell-based; design: expressed in transfected cells; host or cells: C6-15 rat glioma cells, transient co-transfection of pEF-BOS-dhfr-HORK3 and pEF-BOS-Gqi; details: C6-15 cells transfected with pEF-BOS-dhfr-HORK3 and pEF-BOS-Gqi; peak values, Logistic regression
Description: When most purines such as ADP, 2MeSADP (2-methylthio-ADP), or the like are added to a cell, the increase in intracellular Ca^2+ via an endogenous cellular membrane receptor is observed. […] In the present example, the C6-15 cell was used to express the HORK3 protein.
Further, the plasmid pEF-BOS-dhfr-HORK3 obtained in Example 1 was used as an expression plasmid to be used for expressing the HORK3 protein. […]
A time course of the change in the intracellular Ca^2+ concentration was measured by using FLIPR (manufactured by Molecular Device). More particularly, after 10 seconds from the beginning of measurement, 2MeSADP or ADP was added to wells to a final concentration of 3×10^−5 mol/L to 1×10^−12 mol/L. After the addition, each fluorescence intensity was measured at an interval of 1 second for 50 seconds, and then at an interval of 6 seconds for 4 minutes.
The change of the intracellular Ca^2+ concentration by 2MeSADP or ADP in the cells to which the plasmid pEF-BOS-dhfr-HORK3 and the plasmid pEF-BOS-Gqi had been transfected was measured, each peak value in various concentrations of 2MeSADP or ADP was plotted, and then the dependency upon the concentration was analyzed by using a Logistic regression method.

[6] = target: T1, HORK3 protein (human ADP receptor P2TAC); assay: [3H]-2MeSADP binding assay on membrane fraction of C6-15 cell expressing HORK3 protein; details: 1 nmol/L [3H]-2MeSADP; 20 μg membrane fraction; room temperature 2 hours
Description: The C6-15 cells expressing the HORK3 protein prepared in Example 5 were taken and washed, and then suspended in 20 mmol/L Tris-HCl (pH7.4) containing 5 mmol/L EDTA and a protease inhibitor cocktail set (Complete™; manufactured by Boeringer Mannheim). The whole was homogenized by using a POLYTRON, and ultracentrifuged. The pellet was suspended in 50 mmol/L Tris-HCl (pH7.4) containing 1 mmol/L EDTA, 100 mmol/L NaCl, 0.1% BSA, and Complete™ to obtain a membrane fraction.
After [^3H]-2MeSADP (manufactured by Moravek Biochemical) was added to 20 μg of the membrane fraction as a final concentration of 0.25 to 50 nmol/L, and was incubated in 250 μL of 50 mmol/L Tris-HCl (pH7.4) containing 1 mmol/L EDTA, 100 mmol/L NaCl, 0.1% BSA, and Complete™ at room temperature for 1 hour, the whole was collected on a glass filter by using a cell harvester. A microscintillator was added to the glass filter, and then a total amount of binding to the membrane fraction was measured by using a liquid scintillation counter. Further, an amount of non-specific binding to the membrane fraction was measured by adding 2MeSADP (a final concentration=50 μmol/L) in the above assay.
A microscintillator was added to the glass filter, and then radioactivity was measured by using a liquid scintillation counter. Further, radioactivity was measured by not adding the compound and by adding 2MeSADP (a final concentration=10 μmol/L) in the above assay, as a total amount of binding and an amount of non-specific binding, respectively.

[7] = system: ADP-induced platelet aggregation of human PRP; assay: ADP-induced human platelet aggregation in platelet-rich plasma (aggregometer); type: cell-based; details: sodium citrate, ADP 20 to 200 μmol/L added as inducer, FIGS. 1 and 2
Description: Blood was collected from a healthy person (adult) by using 1/10 volume of sodium citrate, and then platelet-rich plasma(PRP) was prepared in accordance with a method of De Marco et al. (J. Clin. Invest., 77, 1272-1277, 1986). The PRP was used after preparing it to 3×10^8 cells/mL by using an automatic blood cell counter (MEK6258; Nihon Kohden Corporation). As an inducer of aggregation, ADP which is a product manufactured by MC Medical Corporation was used.
The platelet aggregation was measured by using an aggregometer (MCM Hema Tracer 212; MC Medical Corpration). […] Changes of a transmitted light were recorded for 10 minutes, and then an aggregation inhibition (%) was calculated from the maximum aggregation rate.
The data for 2MeSAMP (FIG. 1) are represented by the “average” of the experiment results obtained by using two volunteers. […] The inhibitory strength was dependent on the concentration of ADP as an inducer.

SMILES | change of the intracellular Ca2+ concentration [1] | EC50 [2] [nM] | changes in the amount of cAMP produced by the forskolin stimulus [3] | EC50 [4] [nM] | EC50 [5] [nM] | IC50 ([4]; 1 μmol/L forskolin and 10 nmol/L 2MeSADP, read-out: IC50, inhibitory effect on the suppression by 2MeSADP in the amount of cAMP produced by the forskolin stimulus) [nM] | IC50 [6] [nM] | inhibition of ADP-induced platelet aggregation [7]
CSc1nc(N)c2ncn([C@@H]3O[C@H](COP(=O)(O)OP(=O)(O)O)[C@@H](O)[C@H]3O)c2n1 [2MeSADP, 2-methylthio-ADP] | not observed | 0.07 | no changes | 0.08 | 5.4 | – | – | –
CSc1nc(N)c2ncn([C@@H]3O[C@H](COP(=O)(O)O)[C@@H](O)[C@H]3O)c2n1 [2MeSAMP, 2-methylthio-adenosine monophosphate] | – | – | – | – | – | 5000 | 4900 | inhibited the ADP-induced platelet aggregation concentration-dependently
Nc1ncnc2c1ncn2[C@@H]1O[C@H](COP(=O)(O)OP(=O)(O)O)[C@@H](O)[C@H]1O [ADP, adenosine 5′-diphosphate] | not observed | 35 | no changes | 42 | 220 | – | – | –
CSCCNc1nc(SCCC(F)(F)F)nc2c1ncn2[C@@H]1O[C@H](COP(=O)(O)OP(=O)(O)C(Cl)(Cl)P(=O)(O)O)[C@@H](O)[C@H]1O [AR-C69931MX, N6-[2-methylthioethyl]-2-[3,3,3-trifluoropropylthio]-5′-ade nylic acid, monoanhydride with dichloromethylenebiphosphonic acid] | – | – | – | – | – | – | – | inhibited the ADP-induced platelet aggregation concentration-dependently
